According to patent publication US11643438B2, “Antimicrobial peptides and methods of use” (priority 2018, dated 2023):
“Also recorded” adds a separate entry of the source. *1 amine or outer side, *2 acyl side, *3 side chain or, on linkers, in order; H or OH if unused. Where a SMILES comes first, the peptide text is derived from it. [ ]: non-standard residue; d: D form. X2 = CC[C@H](C)C[C@H](C)C[C@H](C)C[C@H](N[*:1])C(=O)[*:2]; X1 = CC[C@@H](C)[C@@H](O[*:1])C(=O)[*:2]; NMeVal(β-OH) = CN[C@H](C(=O)O)C(C)(C)O; aIle = CC[C@@H](C)[C@H](N)C(=O)O; NMeV = CN[C@H](C(=O)O)C(C)C; Sar = CNCC(=O)O

What follows are compounds tested on C. albicans SC5314 Flu^R (assay: Ex vivo model of fungal keratitis (porcine cornea)).
Set-up: species or system Candida albicans
`CC[C@H](C)C[C@H](C)C[C@H](C)C[C@@H]1NC(=O)[C@H](C(C)C)N(C)C(=O)[C@@H]([C@H](C)CC)OC(=O)[C@H](C(C)(C)O)N(C)C(=O)[C@H](CC(C)C)NC(=O)[C@H](C(C)C)N(C)C(=O)[C@H]([C@H](C)CC)NC(=O)[C@@H]2CCCN2C(=O)CN(C)C1=O` [Compound 1, persephacin] (cyclo(L[NMeVal(β-OH)][X1][NMeV][X2][Sar]P[aIle][NMeV])) was tested, and the “antifungal activity (fungal growth/infection), in words” value was “inhibited the growth; also recorded: eliminated the fungus”. With `C[C@@H]1C/C=C/C=C/C=C/C=C/[C@H](O[C@@H]2O[C@H](C)[C@@H](O)[C@H](N)[C@@H]2O)C[C@@H]2O[C@](O)(C[C@@H](O)C[C@H]3O[C@@H]3/C=C/C(=O)O1)C[C@H](O)[C@H]2C(=O)O` [Natamycin, natamycin] the “antifungal activity (fungal growth/infection), in words” value was “inhibited the growth; also recorded: reduced the fungal burden”. With `OC(Cn1cncn1)(Cn1cncn1)c1ccc(F)cc1F` [Fluconazole, fluconazole] the “antifungal activity (fungal growth/infection), in words” value was “did not inhibit the growth; also recorded: unable to inhibit the fungus”.
